Legend:
Type in all cases: cell-based
[1] = target: EP4 subtype of the human PGE2 receptor (Homo sapiens, UniProt P35408); experiment: cAMP antagonism test on the human EP4 receptor (HTRF cAMP detection); conditions: selectivity towards hEP4, IC50 measured by cAMP antagonism test
Procedure, shortened: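 Cells expressing human EP4 preincubated 20 min at RT with compound (0.8 nM–16.5 μM), then stimulated with PGE2 (0.3 nM in 3× solution, with IBMX) 60 min at RT. After lysis, cAMP measured by HTRF competition (665/620 nm ratio); antagonism seen as rise in FRET signal.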

human PGD receptor = target: T1, human PGD receptor (Homo sapiens, UniProt Q13258); experiment: cAMP antagonism test on the human prostaglandin D receptor (HTRF cAMP detection); conditions: selectivity towards hDP, IC50 measured by cAMP antagonism test
T1 sequence (Q13258 1-359): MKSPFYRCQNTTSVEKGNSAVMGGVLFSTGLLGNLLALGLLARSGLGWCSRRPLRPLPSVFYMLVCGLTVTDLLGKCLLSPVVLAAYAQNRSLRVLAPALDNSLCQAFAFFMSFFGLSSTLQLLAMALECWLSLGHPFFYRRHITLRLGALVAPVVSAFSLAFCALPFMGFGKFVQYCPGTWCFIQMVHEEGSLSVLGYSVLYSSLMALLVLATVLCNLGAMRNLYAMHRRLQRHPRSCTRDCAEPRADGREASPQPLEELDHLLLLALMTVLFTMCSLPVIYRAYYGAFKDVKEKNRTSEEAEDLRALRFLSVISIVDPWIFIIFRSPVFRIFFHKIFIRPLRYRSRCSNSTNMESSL
Procedure, shortened: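 Cells pre-mixed with cAMP-d2 were preincubated with compound (0.8 nM–16.5 μM) for 20 min at RT, then stimulated with 3× PGD2 solution (6 nM, in PBS-IBMX) for 30 min at RT. After lysis (20 min), HTRF read at 665/620 nm; antagonism seen as rise in FRET ratio.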

[2] = target: EP2 subtype of the human PGE2 receptor (Homo sapiens, UniProt P43116); experiment: cAMP antagonism test on the human EP2 receptor (HTRF cAMP detection); conditions: hEP2 receptor, read-out: Antagonism hEP2 IC50
Sequence of EP2 subtype of the human PGE2 receptor (P43116 whole entry): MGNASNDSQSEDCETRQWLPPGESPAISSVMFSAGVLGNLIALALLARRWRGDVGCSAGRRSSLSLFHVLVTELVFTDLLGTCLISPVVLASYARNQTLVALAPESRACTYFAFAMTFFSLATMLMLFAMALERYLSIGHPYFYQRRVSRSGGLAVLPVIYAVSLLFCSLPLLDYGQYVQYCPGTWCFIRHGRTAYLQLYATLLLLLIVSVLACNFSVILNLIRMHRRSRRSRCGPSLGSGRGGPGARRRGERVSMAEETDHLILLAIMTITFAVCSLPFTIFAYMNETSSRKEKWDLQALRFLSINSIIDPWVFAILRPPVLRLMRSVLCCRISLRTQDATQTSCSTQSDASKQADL
Procedure, shortened: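 Cells expressing human EP2 preincubated 20 min at RT with compound (0.8 nM–16.5 μM), then stimulated 60 min with PGE2 (3× solution 1.5 nM) in PBS-IBMX. After 20 min lysis, cAMP measured by competitive HTRF with cAMP-d2 and Eu cryptate anti-cAMP antibody (665/620 nm ratio).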

Sequence of EP4 subtype of the human PGE2 receptor (P35408 whole entry): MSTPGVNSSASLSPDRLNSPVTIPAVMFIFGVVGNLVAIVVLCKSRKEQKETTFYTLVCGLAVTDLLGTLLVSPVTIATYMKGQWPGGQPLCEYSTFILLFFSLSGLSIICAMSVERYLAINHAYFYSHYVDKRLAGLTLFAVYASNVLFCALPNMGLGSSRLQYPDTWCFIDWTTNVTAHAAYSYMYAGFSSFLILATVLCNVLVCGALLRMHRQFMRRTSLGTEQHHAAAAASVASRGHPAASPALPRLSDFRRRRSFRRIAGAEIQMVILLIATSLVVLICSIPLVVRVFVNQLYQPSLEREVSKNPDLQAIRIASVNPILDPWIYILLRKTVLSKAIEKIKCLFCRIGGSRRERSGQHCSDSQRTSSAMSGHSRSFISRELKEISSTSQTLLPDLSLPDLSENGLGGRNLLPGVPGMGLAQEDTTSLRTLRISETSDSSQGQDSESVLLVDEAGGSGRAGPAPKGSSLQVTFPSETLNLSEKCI

Selectivity hEP2/hEP4 [1]	Selectivity hEP2/hDP (human PGD receptor)	IC50 [2] [nM]	SMILES
xxx (xxx > 100)	xxx (xxx > 100)	7.29	COCCNC(=O)c1ccc2nn(CC3CCN(C(=O)c4ccc(-c5ccc(C(C)(C)C#N)cc5)cc4)CC3)cc2c1C [Example 372, 2-[(1-{[4′-(1-cyano-1-methylethyl)biphenyl-4-yl]carbonyl}piperidin-4-yl)-methyl]-N-(2-methoxyethyl)-4-methyl-2H-indazol-5-carboxamide]
xxx (xxx > 100)	xxx (xxx > 100)	40.7	COCCNC(=O)c1ccc2nn(CC3CCN(C(=O)c4ccc(-c5ccc(OC)cn5)cc4)CC3)cc2c1C [Example 373, N-(2-methoxyethyl)-2-({1-[4-(5-methoxypyridin-2-yl)benzoyl]piperidin-4-yl}-methyl)-4-methyl-2H-indazol-5-carboxamide]
xxx (xxx > 100)	xxx (xxx > 100)	6.58	COCCNC(=O)c1ccc2nn(CC3CCN(C(=O)c4ccc(-c5ccc(C(F)(F)F)nc5)cc4)CC3)cc2c1C [Example 374, N-(2-methoxyethyl)-4-methyl-2-[(1-{4-[6-(trifluoromethyl)pyridin-3-yl]-benzoyl}piperidin-4-yl)methyl]-2H-indazol-5-carboxamide]
xxx (xxx > 100)	xxx (xxx > 100)	5.8	COCCNC(=O)c1ccc2nn(CC3CCN(C(=O)c4ccc(-c5ccc(OC)nc5)cc4)CC3)cc2c1C [Example 375, N-(2-methoxyethyl)-2-({1-[4-(6-methoxypyridin-3-yl)benzoyl]piperidin-4-yl}-methyl)-4-methyl-2H-indazol-5-carboxamide]
xxx (xxx > 100)	xxx (xxx > 100)	3.59	COCCNC(=O)c1ccc2nn(CC3CCN(C(=O)c4ccc(-c5ccc(F)cc5C)cc4)CC3)cc2c1C [Example 376, 2-({1-[(4′-fluoro-2′-methylbiphenyl-4-yl)carbonyl]piperidin-4-yl}methyl)-N-(2-methoxyethyl)-4-methyl-2H-indazol-5-carboxamide]
xxx (xxx > 100)	xxx (xxx > 100)	27.3	COCCNC(=O)c1ccc2nn(CC3CCN(C(=O)c4ccc(-c5ccc(C)nc5)cc4)CC3)cc2c1C [Example 377, N-(2-methoxyethyl)-4-methyl-2-({1-[4-(6-methylpyridin-3-yl)benzoyl]piperidin-4-yl}methyl)-2H-indazol-5-carboxamide]
xxx (xxx > 100)	xxx (xxx > 100)	7.77	COCCNC(=O)c1ccc2nn(CC3CCN(C(=O)c4ccc(-c5cccc(OC)n5)cc4)CC3)cc2c1C [Example 378, N-(2-methoxyethyl)-2-({1-[4-(6-methoxypyridin-2-yl)benzoyl]piperidin-4-yl}methyl)-4-methyl-2H-indazol-5-carboxamide]
xxx (xxx > 100)	xxx (xxx > 100)	62.6	COCCNC(=O)c1ccc2nn(CC3CCN(C(=O)c4ccc(-c5cnc(C)nc5)cc4)CC3)cc2c1C [Example 379, N-(2-methoxyethyl)-4-methyl-2-({1-[4-(2-methylpyrimidin-5-yl)benzoyl]-piperidin-4-yl}methyl)-2H-indazol-5-carboxamide]
xxx (xxx > 100)	xxx (xxx > 100)	5.35	COCCNC(=O)c1ccc2nn(CC3CCN(C(=O)c4ccc(-c5ccc(F)cc5OC)cc4)CC3)cc2c1C [Example 380, 2-({1-[(4′-fluoro-2′-methoxybiphenyl-4-yl)carbonyl]piperidin-4-yl}methyl)-N-(2-methoxyethyl)-4-methyl-2H-indazol-5-carboxamide]
